In patent publication US7547710B2, “Fused heterocyclic compounds as peptidase inhibitors” (Takeda Pharmaceutical Company Limited, priority 2002, dated 2009):

test system: not given; test: not given; conditions: not given

Row | Compound | melting point [°C]
1 | COC(=O)c1ccc2nc(CC(C)C)c(CN)c(-c3ccccc3F)c2c1 [Example 29, Methyl 3-(aminomethyl)-4-(2-fluorophenyl)-2-isobutylquinoline-6-carboxylate] | 138 to 139
2 | CC(C)Cc1nc2ccc(OCC(N)=O)cc2c(-c2cccs2)c1CN [Example 33, 2-{[3-(aminomethyl)-2-isobutyl-4-thien-2-ylquinolin-6-yl]oxy}acetamide] | 156 to 157
3 | CC(C)(C)Cc1nc2ccc(OCC(N)=O)cc2c(-c2ccccc2)c1CN [Example 40, 2-{[3-(aminomethyl)-2-(2,2-dimethylpropyl)-4-phenylquinolin-6-yl]oxy}acetamide] | 152 to 154
4 | CC(C)Cc1nc2ccc(OCC(N)=O)cc2c(-c2cccc(F)c2)c1CN [Example 38, 2-{[3-(aminomethyl)-4-(3-fluorophenyl)-2-isobutylquinolin-6-yl]oxy}acetamide] | 106 to 109
5 | NCc1c(CC2CCCC2)nc2ccc(OCC(N)=O)cc2c1-c1ccccc1 [Example 42, 2-{[3-(aminomethyl)-2-(cyclopentylmethyl)-4-phenylquinolin-6-yl]oxy}acetamide] | 159 to 160

The next lines start with the values.

Row | melting point [°C] | Compound
6 | 128 to 130 | CC(C)Cc1nc2ccc(C#N)cc2c(-c2ccccc2)c1CN [Example 3, 3-(aminomethyl)-2-isobutyl-4-phenylquinoline-6-carbonitrile]
7 | 129 to 130 | CC(C)Cc1nc2ccc(Br)cc2c(-c2ccccc2)c1CN [Example 2, (6-bromo-2-isobutyl-4-phenylquinolin-3-yl)methylamine]
8 | 119 to 120 | Cc1ccc(-c2c(CN)c(CC(C)C)nc3ccc(OCc4ccccc4)cc23)cc1 [Example 30, [6-(benzyloxy)-2-isobutyl-4-(4-methylphenyl)quinolin-3-yl]methylamine]
9 | 73 to 76 | COc1ccc2nc(CC(C)C)c(CN)c(-c3ccccc3)c2c1 [Example 25, (2-isobutyl-6-methoxy-4-phenylquinolin-3-yl)methylamine]
10 | 114 to 116 | CC(C)Cc1nc2ccc(Cl)cc2c(-c2ccccc2)c1CN [Example 1, (6-chloro-2-isobutyl-4-phenylquinolin-3-yl)methylamine]

biological target: T1, dipeptidyl peptidase IV in rat plasma (Rattus norvegicus, UniProt P14740); test: Determination of dipeptidyl peptidase IV inhibitory activity in rat plasma; format: biochemical; conditions: SD rat plasma, substrate Gly-Pro-p-NA, 30° C., absorbance 405 nm after 0 hr. and 1 hr.
T1 construct: from tissue; host or cells: SD rat blood plasma
Experimental: The reaction was carried out according to the method of Raymond et al. (Diabetes, vol. 47, pp. 1253-1258, 1998) using a 96 well flat-bottomed plate at 30° C. An N,N-dimethylformamide solution (1 μl) containing the test compound was added to a mixture of water (69 μl), 1 M Tris-hydrochloride buffer (10 μl, pH 7.5) and 1 mM aqueous Gly-Pro-p-NA solution (100 μl) to prepare a mixed solution. Plasma (20 μl) prepared from blood of SD rat by a conventional method was added to the above-mentioned mixed solution and the enzyme reaction was started at 30° C. The absorbance after 0 hr. and 1 hr. was measured using a microplate reader at a wavelength of 405 nm and an increase (ΔODs) was determined. At the same time, an increase (ΔODc) in absorbance of the reaction mixture without the test compound, and an increase (ΔODb) in absorbance of the reaction mixture without the test compound and the enzyme were determined and percent inhibition of dipeptidyl peptidase IV enzyme activity was calculated from the following formula: {1−[(ΔODs−ΔODb)/(ΔODc−ΔODb)]}×100
The dipeptidyl peptidase IV inhibitory activity of the test compound group is expressed in IC50 value (μM) and shown in Table 2.

T1 sequence (P14740 37-767 limits assumed): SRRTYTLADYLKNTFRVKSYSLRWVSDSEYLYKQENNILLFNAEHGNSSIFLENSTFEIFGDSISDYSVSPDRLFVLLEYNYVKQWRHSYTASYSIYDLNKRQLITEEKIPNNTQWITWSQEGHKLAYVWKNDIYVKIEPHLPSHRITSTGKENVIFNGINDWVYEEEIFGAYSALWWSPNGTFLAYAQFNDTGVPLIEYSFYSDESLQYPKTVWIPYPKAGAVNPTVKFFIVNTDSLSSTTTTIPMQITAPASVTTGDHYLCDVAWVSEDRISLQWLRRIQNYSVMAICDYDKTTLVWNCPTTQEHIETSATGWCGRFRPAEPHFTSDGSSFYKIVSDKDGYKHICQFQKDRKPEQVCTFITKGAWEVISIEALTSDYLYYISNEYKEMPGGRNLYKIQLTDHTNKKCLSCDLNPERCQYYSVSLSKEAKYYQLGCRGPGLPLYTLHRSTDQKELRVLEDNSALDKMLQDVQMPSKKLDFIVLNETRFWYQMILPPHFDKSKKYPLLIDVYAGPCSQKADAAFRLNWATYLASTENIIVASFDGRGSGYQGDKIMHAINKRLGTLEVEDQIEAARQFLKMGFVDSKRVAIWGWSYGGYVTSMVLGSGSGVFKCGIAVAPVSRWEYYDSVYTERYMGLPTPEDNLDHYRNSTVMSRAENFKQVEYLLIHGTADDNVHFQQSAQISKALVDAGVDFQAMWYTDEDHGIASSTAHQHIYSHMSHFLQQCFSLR

Row | IC50 [nM] | Compound
11 | 1600 | CC(C)Cc1nc2ccc(Cl)cc2c(-c2ccccc2)c1CN [Example 1, (6-chloro-2-isobutyl-4-phenylquinolin-3-yl)methylamine]

biological target: T2, Caco-2-derived dipeptidyl peptidase IV (Homo sapiens, UniProt P27487); test: Determination of Caco-2-derived dipeptidyl peptidase IV inhibitory activity; format: biochemical; conditions: Caco-2 crude enzyme solution, substrate Gly-Pro-p-NA, 37° C., absorbance 405 nm after 0 hr. and 3 hrs.
T2 construct: A dipeptidyl peptidase IV crude enzyme solution was prepared from cultured Caco-2 (ATCC HTB-37) cells; endogenous in cells; host or cells: Caco-2 (ATCC HTB-37); Triton X-100 extract, Sephadex G-200 fractions
Experimental: The enzyme activity of dipeptidyl peptidase IV present in human colonic adenocarcinoma-derived cell line Caco-2 cell membrane has been already reported by Yong S. Chung et al. (Cancer Research, vol. 45, pp. 2976-2982, 1985).
A dipeptidyl peptidase IV crude enzyme solution was prepared from cultured Caco-2 (ATCC HTB-37) cells. The Caco-2 cells were cultured in D-MEM medium (manufactured by Nissui Pharmaceutical Co., Ltd.) containing 10% FBS (fetal bovine serum (manufactured by GIBCO)). […]
An N,N-dimethylformamide solution (5 μl) containing the test compound was added to a mixture of water (25 μl), 1M Tris-hydrochloride buffer (10 μl, pH 7.5) and 1 mM aqueous glycylprolyl-p-nitroanilide (Gly-Pro-p-NA; manufactured by Backem AG) solution (50 μl) to prepare a mixed solution. […] The absorbance after 0 hr. and 3 hrs. was measured using a microplate reader (Multiskan Bichromatic; manufactured by Labsystems) at a wavelength of 405 nm and an increase (ΔODs) was determined. At the same time, an increase (ΔODc) in absorbance of the reaction mixture without the test compound, and an increase (ΔODb) in absorbance of the reaction mixture without the test compound and the enzyme were determined and percent inhibition of dipeptidyl peptidase IV enzyme activity was calculated from the following formula: {1−[(ΔODs−ΔODb)/(ΔODc−ΔODb)]}×100 […]

T2 sequence (P27487 whole entry): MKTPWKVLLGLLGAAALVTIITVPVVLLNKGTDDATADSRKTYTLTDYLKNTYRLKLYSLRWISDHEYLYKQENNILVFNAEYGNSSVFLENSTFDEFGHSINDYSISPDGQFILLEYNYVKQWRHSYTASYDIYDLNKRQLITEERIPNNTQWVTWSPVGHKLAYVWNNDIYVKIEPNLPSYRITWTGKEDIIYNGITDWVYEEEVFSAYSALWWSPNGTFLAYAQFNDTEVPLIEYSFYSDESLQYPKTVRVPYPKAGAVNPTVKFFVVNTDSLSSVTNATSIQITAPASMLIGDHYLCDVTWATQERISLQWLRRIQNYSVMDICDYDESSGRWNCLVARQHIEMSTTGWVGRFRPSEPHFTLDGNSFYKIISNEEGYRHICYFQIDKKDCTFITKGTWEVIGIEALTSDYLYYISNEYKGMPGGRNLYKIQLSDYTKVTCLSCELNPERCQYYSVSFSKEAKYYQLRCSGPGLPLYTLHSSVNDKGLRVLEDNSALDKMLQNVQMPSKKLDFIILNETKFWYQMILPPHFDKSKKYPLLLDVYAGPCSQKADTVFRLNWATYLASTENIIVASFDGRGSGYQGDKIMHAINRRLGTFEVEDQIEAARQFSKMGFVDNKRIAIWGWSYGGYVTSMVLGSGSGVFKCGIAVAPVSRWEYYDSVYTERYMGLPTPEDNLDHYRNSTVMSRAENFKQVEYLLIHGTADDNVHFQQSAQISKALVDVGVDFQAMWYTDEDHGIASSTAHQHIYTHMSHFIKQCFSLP

Row | IC50 [nM] | Compound
12 | 710 | CC(C)Cc1nc2ccc(Cl)cc2c(-c2ccccc2)c1CN [Example 1, (6-chloro-2-isobutyl-4-phenylquinolin-3-yl)methylamine]
